According to article PMC4457826 (PLoS Pathogens, 2015):
No end group written: not given here.

Key:
FL-USP7 = experiment: GST pull-down, USP7-FL; format: binding, human; conditions: GST fusions 250 μg + USP7 250 μg, 50 mM Tris pH 8.0, 100 mM NaCl, 5 mM DTT, 5% glycerol, overnight 4°C; Coomassie stained gel; Fig 1A/1C; symbols not defined
Procedure: The USP7 binding region is found within ICP0 residues 594–633 and mutagenesis studies have shown that K620 is essential for the interaction. In order to facilitate crystallization and structure determination, we set out to identify a shorter peptide that is capable of binding to USP7. To this end, a series of overlapping GST-ICP0 fusions (591–605, 595–609, 599–613, 603–617, 607–621, 611–625, 615–629, 619–633) were prepared (see Fig 1A for sequence details) and used in GST pull-down assays. […] Overall, our GST pull-down assays identified ICP0 residues between 619 and 629 as important mediators of USP7 binding in agreement with a previous study.
Next we determined which region of USP7-CTD interacted with the ICP0 615–629 peptide. FL-USP7, USP7-CTD as well as Ubl12, Ubl123, Ubl345 and Ubl45 (Fig 1B) were used as prey in GST pull-down assays using GST-ICP0 615–629. FL-USP7 and USP7-CTD were used as positive controls while GST alone and USP7-NTD were used as negative controls.
(§1) The ICP0, GMPS and UHRF1 WT and mutant peptides were cloned into pGEX-2TK and expressed in E. coli BL21(DE3). GST-ICP0 594–775 was obtained from Roger Everett. The GST-ICP0 or GST-GMPS or GST-UHRF1 or GST-ICP0 594–775 cell pellets from 500 ml of LB broth were re-suspended with PBS and lysed using sonication. The cleared lysates were applied to 500 μl of equilibrated glutathione-sepharose beads and incubated with rocking for 60 min at 4°C. Unbound proteins were removed by washing with PBS. Bound proteins were eluted with 50 mM Tris pH 8.0 and 100 mM NaCL containing 30 mM reduced glutathione. Equal amounts (250 μg) of the various USP7 proteins were incubated with 250 μg of the GST-ICP0 or GST-GMPS or GST-UHRF1 or GST-ICP0 594–775 peptides in 50 mM Tris pH 8.0, 100 mM NaCl, 5 mM DTT, 5% glycerol, 0.1 mM Benzamidine and 0.05 mM PMSF, applied to equilibrated glutathione-sepharose beads and incubated overnight with rocking at 4°C. After extensive washing, bound proteins were eluted with 50 mM Tris pH 8.0 and 100 mM NaCl containing 30 mM reduced glutathione.

USP7-CTD = biological target: T1, USP7-CTD (Homo sapiens, UniProt Q93009); experiment: GST pull-down, USP7-CTD; format: binding
T1 construct: USP7-CTD (535–1102); His tag (inferred from nickel-NTA purification; vector p15TV-L); made in house; host or cells: E. coli BL21(DE3)mgk
T1 sequence (Q93009 535-1102): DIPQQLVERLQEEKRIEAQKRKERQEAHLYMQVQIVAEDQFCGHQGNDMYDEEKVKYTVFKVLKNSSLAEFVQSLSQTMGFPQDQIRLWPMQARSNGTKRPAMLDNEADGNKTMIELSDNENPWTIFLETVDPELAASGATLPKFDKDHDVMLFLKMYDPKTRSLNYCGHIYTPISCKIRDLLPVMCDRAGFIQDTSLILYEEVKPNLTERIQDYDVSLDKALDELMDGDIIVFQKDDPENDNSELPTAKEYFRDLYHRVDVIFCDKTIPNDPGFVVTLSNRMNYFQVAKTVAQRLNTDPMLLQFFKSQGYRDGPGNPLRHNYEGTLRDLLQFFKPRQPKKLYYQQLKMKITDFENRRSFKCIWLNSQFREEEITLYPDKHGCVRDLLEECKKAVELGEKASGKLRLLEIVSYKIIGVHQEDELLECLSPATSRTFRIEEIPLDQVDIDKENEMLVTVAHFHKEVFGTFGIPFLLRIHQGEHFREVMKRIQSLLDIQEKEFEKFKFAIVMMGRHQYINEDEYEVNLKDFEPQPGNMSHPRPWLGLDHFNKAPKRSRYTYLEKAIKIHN
Procedure: (§2) Fragments representing USP7-CTD Ubl domains were prepared using ligation independent cloning with In-Fusion (Clontech) in p15TV-L. The boundaries of the Ubl domain constructs are Ubl12 (535–776), Ubl123 (535–889), Ubl345 (776–1102), Ubl45 (886–1102) and USP7-CTD (535–1102). Plasmids expressing USP7-NTD, USP7, and myc-USP7 WT (pCANmycUSP7) were described previously. USP7 mutants E759A, D762A, D764A and D762A/D764A in Ubl123 were synthesized (Genscript) and inserted into the pET15b plasmid. USP7 mutants E759A, D762A, D764A, D762A/D764A and D762R/D764R in USP7-CTD were prepared by ACGT Corporation. The D762R/D764R mutant was then sub-cloned into wild-type pCANmycUSP7 for co-IP assays. The mammalian ICP0 expression construct pCI-110 ICP0 was obtained from Roger Everett.
as §1

USP7-CTD mutant D764A = experiment: GST pull-down, USP7-CTD D764A; format: binding, human
Procedure: as §2
The ICP0, GMPS and UHRF1 WT and mutant peptides were cloned into pGEX-2TK and expressed in E. coli BL21(DE3). GST-ICP0 594–775 was obtained from Roger Everett. The GST-ICP0 or GST-GMPS or GST-UHRF1 or GST-ICP0 594–775 cell pellets from 500 ml of LB broth were re-suspended with PBS and lysed using sonication. The cleared lysates were applied to 500 μl of equilibrated glutathione-sepharose beads and incubated with rocking for 60 min at 4°C. Unbound proteins were removed by washing with PBS. Bound proteins were eluted with 50 mM Tris pH 8.0 and 100 mM NaCL containing 30 mM reduced glutathione. […]

USP7-CTD mutant D762A = experiment: GST pull-down, USP7-CTD D762A; format: binding, human
Procedure: as §2, §1

[1] = test system: USP7-CTD mutant D762A/D764A; experiment: GST pull-down, USP7-CTD D762A/D764A; format: binding, human
Procedure: as §2, §1

myc-tagged WT USP7 = experiment: Co-immunoprecipitation with myc-tagged WT USP7 from 293T cells; format: cell-based, human; conditions: anti-myc IP, endogenous protein, Western blot, Fig 5B
Procedure: (§3) 293T cells were grown in Dulbecco’s modified Eagle’s medium (DMEM) (Gibco) with 10% fetal calf serum. 293T cells at 70% confluence in a 10-cm-diameter dish were transfected with 10 μg pCANmycUSP7 expressing WT USP7 or D762R/D764R (MRGR) USP7 or with pcDNA3.1 (negative control), in each case using 20 μl PolyJet (SignaGen Laboratories) transfection reagent. Cells were transferred to a 15-cm-diameter dish 24 h post-transfection and harvested 48 h post-transfection. For experiments on USP7-ICP0 interactions, 293T cells were co-transfected with 1 μg pCANmycUSP7 expressing WT or D762R/D764R (MRGR) USP7 and either 1 μg pCI-110 ICP0 or 1 μg pcDNA3.1. For controls lacking USP7, 1 μg pCI-110 ICP0 was co-transfected with 1 μg pcDNA3.1. In each case 4 μl PolyJet (SignaGen Laboratories) transfection reagent was used.
Protein samples were subjected to SDS-PAGE and transferred to nitrocellulose. […]
293T cells transfected as described above were washed in phosphate-buffered saline (PBS) and lysed on ice for 45 min in a 4x volume of RIPA buffer (50 mM Tris-HCl [pH 8], 150 mM NaCl, 0.1% sodium deoxycholate, 0.5% NP-40) with complete protease inhibitors (Sigma P8340), followed by centrifugation. […] Immunoprecipitated proteins were separated by SDS-PAGE and analyzed by Western blotting, as described above.

[2] = test system: myc-tagged D762R/D764R (MRGR) USP7; experiment: Co-immunoprecipitation with myc-tagged D762R/D764R (MRGR) USP7 from 293T cells; format: cell-based, human; conditions: anti-myc IP
Procedure: as §3
Protein samples were subjected to SDS-PAGE and transferred to nitrocellulose. Membranes were blocked in 5% skim milk in Tris-buffered saline with 1% Tween (TBS-T) and then incubated with antibodies against ICP0 (H1A027 from Virusys Corporation; 1:5000 dilution), myc (sc-40 from Santa Cruz Biotechnology; 1:5000 dilution), NP95/UHRF1 (A301-470A from Bethyl Laboratories; 1:1000 dilution), GMPS (rabbit serum raised against full-length GMPS [17]; 1:5000 dilution) and actin (MA5-15739 from Pierce; 1:20,000 dilution). After washing, blots were probed with goat anti-mouse or goat anti-rabbit peroxidase (Santa Cruz Biotechnology; 1:5000 dilution) and developed using chemiluminescence reagents (Santa Cruz biotechnology).
293T cells transfected as described above were washed in phosphate-buffered saline (PBS) and lysed on ice for 45 min in a 4x volume of RIPA buffer (50 mM Tris-HCl [pH 8], 150 mM NaCl, 0.1% sodium deoxycholate, 0.5% NP-40) with complete protease inhibitors (Sigma P8340), followed by centrifugation. 1 mg of each clarified lysate was incubated with 1 μg of anti-myc antibody for 1h, followed by incubation with 30 μl of A/G PLUS agarose resin (Santa Cruz Biotechnology) for 2 h at 4°C with end-over-end rotation. The resin was harvested by centrifugation, washed in RIPA buffer, and then boiled in SDS loading buffer. Immunoprecipitated proteins were separated by SDS-PAGE and analyzed by Western blotting, as described above.

USP7 Ubl123 = biological target: T2, USP7 Ubl123 (Homo sapiens, UniProt Q93009); experiment: GST pull-down, Ubl123; format: binding; conditions: mutations within ICP0 615–629, Fig 3D
T2 construct: Ubl123 (535–889); His tag (inferred from nickel-NTA purification; vector p15TV-L); made in house; host or cells: E. coli BL21(DE3)mgk
T2 sequence (Q93009 535-889): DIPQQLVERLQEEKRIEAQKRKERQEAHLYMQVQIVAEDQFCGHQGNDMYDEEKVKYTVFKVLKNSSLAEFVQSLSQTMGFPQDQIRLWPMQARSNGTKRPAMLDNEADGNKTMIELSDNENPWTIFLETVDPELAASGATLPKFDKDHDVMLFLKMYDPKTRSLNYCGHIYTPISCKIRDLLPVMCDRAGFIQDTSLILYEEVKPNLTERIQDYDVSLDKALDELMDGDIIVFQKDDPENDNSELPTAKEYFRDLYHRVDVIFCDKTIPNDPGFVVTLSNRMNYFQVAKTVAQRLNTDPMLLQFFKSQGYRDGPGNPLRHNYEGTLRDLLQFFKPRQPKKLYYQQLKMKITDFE
Procedure: as §2, §1

Which results are given for “AASGPRGPRKCARKT [ICP0 611–625, GST-ICP0 fusion of ICP0 residues 611–625]”?
Interaction with USP7-FL (overlapping GST-ICP0 peptides) (FL-USP7): interacted with FL-USP7 and USP7-CTD but not to the same extent; Interaction with USP7-CTD (overlapping GST-ICP0 peptides) (USP7-CTD; GST fusions 250 μg + USP7-CTD 250 μg, 50 mM Tris pH 8.0, 100 mM NaCl, 5 mM DTT, 5% glycerol, overnight 4°C, Coomassie stained gel, Fig 1A/1D, symbols not defined): interacted with FL-USP7 and USP7-CTD but not to the same extent

Which “Binding to USP7-CTD mutant D764A” value (USP7-CTD mutant D764A) does the source give for “DRTPRKRISKTLN [GST-GMPS peptide, GST fusion of GMPS residues 316–328]” here?
Its value is “disrupted binding”.

What about the “Binding to USP7-CTD mutant D762A” value (USP7-CTD mutant D762A) of the same substance?
The value was “disrupted binding”.

What about the “Binding to WT USP7-CTD” value (USP7-CTD; GST pull-down, GST-ICP0 594–775, GST-GMPS and GST-UHRF1 peptides and mutants, Fig 3H, 4C-F) of the same substance?
Its value is “interacted with USP7-CTD”.

What about the “Binding to USP7-CTD mutant D762A/D764A” value [1] of the same substance?
Its value is “disrupted binding”.

Which “recovery with WT USP7 (co-IP)” value (myc-tagged WT USP7) does the source give for “GMPS: endogenous GMP synthase in 293T cells” here?
Its value is “efficiently recovered”.

And the “binding relative to recovery with WT USP7” value ([2]; D762R/D764R mutant, endogenous protein, multiple experiments, Fig 5B)?
The value was 35% (± 16%).

And the “recovery with D762R/D764R USP7 (co-IP), in words” value ([2]; Western blot, Fig 5)?
Its value is “significantly decreased”.

For “K620A (PRGPRACARKTRHAE; also: GST fusion partner not in chain)”, which “Binding of mutant GST-ICP0 peptides to Ubl123” value (“Binding … to Ubl123” for short) (USP7 Ubl123) is on record?
Its value is “lacked detectable binding”.

How did the “Binding … to Ubl123” value (USP7 Ubl123) turn out when “K620A/K624A (PRGPRACARATRHAE; also: GST fusion partner not in chain)” was run?
The value was “lacked detectable binding”.

Which “Binding … to Ubl123” value (USP7 Ubl123) does the source give for “K624A (PRGPRKCARATRHAE; also: GST fusion partner not in chain)” here?
The value was “lacked detectable binding”.
